Structures are written as SMILES. Where two headings read alike, the source gives them in different places.

The conditions of data set [1]: compared to intravenous administration; extensive first-pass effect; cited from earlier work.
Data set [2] is classed as in vivo, human.
A short description of data set [3]: Safety assessments. Format: in vivo, human. The following applies: single dose of milvexian alone and in combination with itraconazole or diltiazem.
In data set [4] the test system is CYP3A4/5. The following applies: preclinical results; ref unpublished data; cited from earlier work.
Data set [5] concerns P-glycoprotein (P-gp). The following applies: preclinical results; ref unpublished data; cited from earlier work.
Data set [6] deals with arterial and venous thrombosis. Conditions: preclinical models of arterial and venous thrombosis; cited from earlier work.
In data set [7] the test system is CYP3A4/5. The following applies: strong index inhibitor of CYP3A4/5; cited from earlier work.
In data set [8] the test system is P-gp. The following applies: inhibitor for P-gp; cited from earlier work.
The mark [9] stands for this setting: co-administration of itraconazole.

With `COc1ccc([C@@H]2Sc3ccccc3N(CCN(C)C)C(=O)[C@@H]2OC(C)=O)cc1` [Diltiazem], the absolute oral bioavailability result in data set [1] was “about 40%”.
With `C[C@@H]1CCC[C@H](n2cnc(-c3cc(Cl)ccc3-n3cc(Cl)nn3)cc2=O)c2cc(ccn2)-c2c(cnn2C(F)F)NC1=O` [Milvexian], in data set [2] (co-administration of diltiazem), the “AUC(0–T) higher compared with milvexian alone” value is listed as 38%, the “AUC(INF) higher compared with milvexian alone” value worked out at 38%, the “C24 higher compared with milvexian alone” value amounted to 64% and the “mean Cmax higher compared with milvexian alone” value is 9.6%. Moreover, the “mean T1/2 longer compared with milvexian alone” value in data set [2] (co-administration of diltiazem) is given as about 1.1 fold. Moreover, in data set [2] (setting [9]), the “AUC(0–T) higher compared with milvexian alone” value came to 2.5 fold, the “AUC(INF) higher compared with milvexian alone” value amounted to 2.5 fold, the “C24 higher compared with milvexian alone” value was determined as 3.8 fold and the “mean T1/2 longer compared with milvexian alone” value is recorded as “approximately 1.5 fold”. For the same molecule, the “effect of co-administration on median Tmax of milvexian” value in data set [2] (co-administration of itraconazole or diltiazem) was “not altered”. In data set [2] (diltiazem co-administration), the “impact of a moderate CYP3A inhibitor on milvexian exposure” value is “less than 2.5 fold”. The “impact of a strong CYP3A inhibitor on milvexian exposure” value in data set [2] (itraconazole co-administration) was under 5 fold. Besides, the “deaths or serious AEs during the study” value in data set [3] is listed as “no deaths or serious AEs”. For the same molecule, the “substrate of CYP3A4/5” value in data set [4] was “substrate of CYP3A4/5”. Besides, the “substrate for P-glycoprotein” value in data set [5] is recorded as “substrate for P-glycoprotein”. Also, the antithrombotic activity entry in data set [6] is “demonstrated antithrombotic activity while preserving homeostasis”.
With `CCC(C)n1ncn(-c2ccc(N3CCN(c4ccc(OCC5COC(Cn6cncn6)(c6ccc(Cl)cc6Cl)O5)cc4)CC3)cc2)c1=O` (stereo not shown) [Itraconazole], in data set [7], the “increase in the AUC of sensitive substrates” value was at least 10 fold. For the same molecule, in data set [8], the “increase in the AUC of digoxin” value is over 1.25 fold.

The record behind these values is PMC9381674 (Cardiology and Therapy, 2022).
